Data as given in ChEMBL document CHEMBL4706500, “Identification of dibucaine derivatives as novel potent enterovirus 2C helicase inhibitors: In vitro, in vivo, and combination therapy study” (Eur J Med Chem, 2020).
Calls of active or inactive are those of the source. The calls are words filed in the database; no cut-off is given here.

Legend:
Enterovirus A71 [1] = assay: Antiviral activity against Enterovirus A71 infected in human RD cells assessed as inhibition of viral replication measured by CCK-8 assay; assay type: functional, organism-based; settings: Enterovirus A
RD [2] = assay: Cytotoxicity against human RD cells infected with Enterovirus A71 assessed as reduction in cell viability measured by CCK-8 assay; assay type: functional
[3] = Selectivity index, ratio of CC50 for human RD cells infected with Enterovirus A71 to EC50 for Enterovirus A71 infected in human RD cells; assay type: toxicity, cell-based; settings: read-out: Selectivity Index
Enterovirus A71 [4] = assay: Antiviral activity against Enterovirus A71 infected in human RD cells using HEX-labelled RNA as substrate assessed as inhibition of dsRNA unwinding by measuring accumulation of dsRNA at 0.56 uM treated 8 hpi by gel based flourescence assay; assay type: functional, organism-based
Enterovirus A71 [5] = assay: Antiviral activity against EV-A71 GZ-C11 infected in KM mouse assessed as prevention of death administered in presence of emetine at 6 mg/kg, po; assay type: functional, organism-based
Enterovirus A71 [6] = assay: Antiviral activity against Enterovirus A71 infected in human RD cells assessed as inhibition of VP1 expression measured after 24 hrs by Western blot assay; assay type: functional, organism-based
Enterovirus A71 [7] = assay: Antiviral activity against Enterovirus A71 infected in human RD cells assessed as inhibition of viral replication measured after 48 hrs by plaque assay; assay type: functional, organism-based
Enterovirus A71 [8] = assay: Antiviral activity against Enterovirus A71 infected in African green monkey vero cells assessed as down regulation of VP1 expression measured after 24 hrs by immunofluorescence assay; assay type: functional, organism-based
Enterovirus A71 [9] = assay: Antiviral activity against Enterovirus A71 infected in African green monkey Vero cells assessed as reduction in viral RNA titer levels at early stage of life cycle at 3.2 uM treated 12 hpi measured upto 8 hrs by time of addition assay; assay type: functional, organism-based; settings: time hrs <=8
Enterovirus A71 [10] = assay: Antiviral activity against EV-A71 GZ-C11 infected in KM mouse assessed as decrease in viral infection clinical symptoms administered 6 mg/kg, po bid for 4 days treatment started 6 hrs post infection measured on day 14 relative to control; assay type: functional, organism-based; settings: time 14.0 day
Enterovirus A71 [11] = assay: Antiviral activity against Enterovirus A71 infected in human RD cells assessed as inhibition of 2C expression measured after 24 hrs by Western blot assay; assay type: functional, organism-based
RD [12] = assay: Inhibition of 2C ATPase helicase activity in Enterovirus A71 infected in human RD cells measured by gel electrophoresis method; assay type: cell-based
[13] = Toxicity in 14 day suckling KM mouse assessed as changes in weight growth at 6 mg/kg, po bid for 4 successive days measured on day 12 relative to control; assay type: organism-based; settings: in vivo, 288 h, time 12 day
Enterovirus A71 [14] = assay: Antiviral activity against Enterovirus A71 infected in human RD cells using HEX-labelled RNA as substrate assessed as increase in accumulation of 2C at 4.95 uM measured after 8hpi by gel based flourescence assay; assay type: functional, organism-based
Enterovirus A71 [15] = assay: Antiviral activity against Enterovirus A71 at early stage of life cycle infected in African green monkey Vero cells assessed as VP1 expression at 3.2 uM treated 12 hpi measured upto 8 hrs by time of addition assay; assay type: functional, organism-based; settings: time hrs <=8
Enterovirus A71 [16] = assay: Antiviral activity against Enterovirus A71 infected in human RD cells using HEX-labelled RNA as substrate assessed as inhibition of dsRNA unwinding by measuring accumulation of dsRNA at 4.95 uM treated 8 hpi by gel based flourescence assay; assay type: functional, organism-based
Enterovirus A71 [17] = assay: Antiviral activity against EV-A71 GZ-C11 infected in KM mouse assessed as improvement in survival rate administered 4 mg/kg, po bid for 4 days starting 6 hrs post infection measured on day 14 (reference value: 30%); assay type: functional; settings: Enterovirus A, 96 h, time 4 day
Enterovirus A71 [18] = assay: Antiviral activity against Enterovirus A71 at early stage of life cycle infected in human RD cells assessed as VP1 expression at 3.2 uM treated 12 hpi measured upto 8 hrs by time of addition assay; assay type: functional, organism-based; settings: time hrs <=8
Enterovirus A71 [19] = assay: Antiviral activity against EV-A71 GZ-C11 infected in KM mouse assessed as improvement in survival rate administered 6 mg/kg, po bid for 4 days starting 6 hrs post infection measured on day 14 (reference value: 30%); assay type: functional; settings: Enterovirus A, 96 h, time 4 day

## CCCNC(=O)c1cc(OCCC)nc2ccccc12
Enterovirus A71 [1]
  EC50: > 100 µM

## CCCCOc1cc(C(=O)NCCN2CCCCC2)c2ccccc2n1
Enterovirus A71 [1]
  EC50: 1.47 µM
RD [2]
  CC50: 93.8 µM

## CCCCCCOc1cc(C(=O)NCCN(CC)CC)c2ccccc2n1
Enterovirus A71 [1]
  EC50: 4.21 µM
[3]
  selectivity ratio: 8
RD [2]
  CC50: 33.6 µM

## CCCCOc1cc(C(=O)NCCCN(CC)CC)c2ccccc2n1
Enterovirus A71 [1]
  EC50: 100 µM
[3]
  selectivity ratio: 64

## CCCCCCOc1cc(C(=O)NCCN(C)C)c2ccccc2n1
Enterovirus A71 [1]
  EC50: 2.27 µM
[3]
  selectivity ratio: 16
RD [2]
  CC50: 36.4 µM

## CC(C)S(=O)(=O)n1c(N)nc2ccc(/C(=N/O)c3ccccc3)cc21 [ENVIROXIME]
Enterovirus A71 [4]
  Activity: inactive
Enterovirus A71 [1]
  EC50: 0.14 µM
[3]
  selectivity ratio: 200
RD [2]
  CC50: 28 µM

## CCOc1cc(C(=O)NCCN(CC)CC)c2ccccc2n1
Enterovirus A71 [1]
  EC50: 2.48 µM
[3]
  selectivity ratio: > 42.7
RD [2]
  CC50: > 106 µM

## CCOc1cc(C(=O)NCCN(C)C)c2ccccc2n1
Enterovirus A71 [1]
  EC50: 3.62 µM
[3]
  selectivity ratio: 31.9
RD [2]
  CC50: 116 µM

## CCCOc1cc(C(=O)NCCN(CC)CC)c2ccccc2n1
Enterovirus A71 [1]
  EC50: 2.37 µM
[3]
  selectivity ratio: > 42.7
RD [2]
  CC50: > 101 µM

## CCCCOc1cc(C(=O)NCCN(CC)CC)c2ccccc2n1 [DIBUCAINE]
Enterovirus A71 [1]
  EC50: 2.27 µM
[3]
  selectivity ratio: > 42.7
RD [2]
  CC50: > 97 µM

## CCCCCOc1cc(C(=O)NCCN(C)C)c2ccccc2n1
Enterovirus A71 [1]
  EC50: 1.58 µM
[3]
  selectivity ratio: 48
RD [2]
  CC50: 75.9 µM

## CCCOc1cc(C(=O)NCC(C)C)c2ccccc2n1
Enterovirus A71 [1]
  EC50: 58.2 µM
[3]
  selectivity ratio: 1.5
RD [2]
  CC50: 87.3 µM

## CCCCOc1cc(C(=O)NCCN(C)C)c2ccccc2n1
Enterovirus A71 [5]
  Activity: Active
Enterovirus A71 [1]
  EC50: 1.24 µM
Enterovirus A71 [6]
  Activity: Active
Enterovirus A71 [7]
  Activity: Active
Enterovirus A71 [8]
  Activity: Active
Enterovirus A71 [9]
  Activity: Active
Enterovirus A71 [10]
  Activity: Active
[3]
  selectivity ratio: 85.4
Enterovirus A71 [11]
  Activity: Active
RD [2]
  CC50: 106 µM
RD [12]
  inhibition: Active
[13]
  Activity: Non-Toxic
Enterovirus A71 [14]
  Activity: Active
Enterovirus A71 [15]
  Activity: Active
Enterovirus A71 [16]
  Activity: Active
Enterovirus A71 [17]
  survival at 4 mg/kg: 30%
Enterovirus A71 [18]
  Activity: Active
Enterovirus A71 [19]
  survival at 6 mg/kg: 67%

## CCCCOc1cc(C(=O)NCCCN(C)C)c2ccccc2n1
Enterovirus A71 [1]
  EC50: 100 µM

## CCCCCOc1cc(C(=O)NCCN(CC)CC)c2ccccc2n1
Enterovirus A71 [1]
  EC50: 5.83 µM
[3]
  selectivity ratio: 6
RD [2]
  CC50: 35 µM

## CC(C)CNC(=O)c1cc(OC(C)C)nc2ccccc12
Enterovirus A71 [1]
  EC50: 58.2 µM
[3]
  selectivity ratio: > 2
RD [2]
  CC50: > 116 µM

## CCCOc1cc(C(=O)NCCN(C)C)c2ccccc2n1
Enterovirus A71 [1]
  EC50: 1.58 µM
[3]
  selectivity ratio: > 70
RD [2]
  CC50: > 111 µM

## CCCCOc1cc(C(=O)NCCN2CCCC2)c2ccccc2n1
Enterovirus A71 [1]
  EC50: 1.53 µM
[3]
  selectivity ratio: > 64.1
RD [2]
  CC50: > 97.7 µM

## CCOc1cc(C(=O)NCC(C)C)c2ccccc2n1
Enterovirus A71 [1]
  EC50: > 100 µM

## CCCNC(=O)c1cc(OCC)nc2ccccc12
Enterovirus A71 [1]
  EC50: 2.02 µM
[3]
  selectivity ratio: > 34.8
RD [2]
  CC50: > 70.2 µM

## CCN(CC)CCNC(=O)c1cc(OC)nc2ccccc12
Enterovirus A71 [1]
  EC50: 27.7 µM
[3]
  selectivity ratio: > 4
RD [2]
  CC50: > 111 µM
